The text below walks through data of patent publication US5308844A, “Substituted 3-piperazinylalkyl-2,3-dihydro-4H-1,3-benzoxazin-4-ones and their use in therapy” (Pierre Fabre Medicament, priority 1991, dated 1994).

Where a name gives a salt, the structure may show the parent alone. Bounds are passed on as bounds.

One series addresses T1, 5HT1 A receptors (Rattus norvegicus, UniProt P19327).
T1 construct: The hippocampus is ground in a Polytrone; from tissue; host or cells: rat hippocampus membranes (male Charles River rats)
T1 sequence (P19327 1-422): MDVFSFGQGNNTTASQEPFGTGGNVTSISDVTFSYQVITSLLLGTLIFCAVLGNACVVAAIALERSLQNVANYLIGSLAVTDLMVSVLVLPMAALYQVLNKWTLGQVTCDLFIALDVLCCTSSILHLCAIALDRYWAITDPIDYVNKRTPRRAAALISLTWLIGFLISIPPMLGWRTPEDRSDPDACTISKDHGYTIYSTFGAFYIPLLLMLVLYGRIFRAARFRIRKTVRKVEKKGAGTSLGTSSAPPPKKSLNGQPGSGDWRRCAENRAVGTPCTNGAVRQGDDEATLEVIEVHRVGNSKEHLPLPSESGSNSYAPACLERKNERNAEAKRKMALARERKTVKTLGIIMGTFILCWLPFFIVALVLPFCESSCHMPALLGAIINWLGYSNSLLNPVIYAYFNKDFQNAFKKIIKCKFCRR
In words: 5HT1 A binding (3H-8-OH-DPAT, hippocampus membranes). Conditions: 3H-8-OH-DPAT ligand 1 nM, 30 min at 25° C. Also noted: species or system Male Charles River rats. How it is done:
The 5HT1 A binding studies were carried out according to the technique of Peroutka (cf. Peroutka S. J., J. Neurochem. 47, p. 529-40, 1986). Male Charles River rats are stunned and decapitated, and the brain is removed and dissected. The different cerebral areas obtained are used or preserved at […]. The hippocampus is ground in a Polytrone® (20 seconds at 7) in 20 volumes of 50 mM tris HCl buffer pH 7.7 at 25° C.) and centrifuged at 45000 g for 10 min. The pellet is separated, taken up in the same volume of tris buffer and incubated for 10 min at 37° C. and then recentrifuged for 10 min at 45000 g. The pellet is finally taken up in 100 volumes of tris HCl buffer containing 10 μM of pargyline, 4 mM of CaCl2 and 0.1% of ascorbic acid. The mixture obtained is homogenized in a Dounce.
The binding is carried out starting with 0.8 ml of the above membrane suspension to which 0.1 ml of ^3 H-8-OH-DPAT ligand (at a concentration of 1 nM) and either 0.1 ml of tris buffer (control) or the compound of the above invention is added. After incubation for 30 min at 25° C., the mixture is filtered on GF/B (Whatman) and rinsed with 5 ml of cold tris HCl buffer. The residue and the filter are then introduced into a vial containing 3 ml of Instagel liquid scintillant (Packard) and the radioactivity is measured in a Packard counter (Tri-Carbs).
The IC50 are determined graphically for a concentration of ligand of 1 nM.
Table I gives the IC50 for the 5HT1 A receptors for certain derivatives of the invention by way of nonlimiting example.
`O=C1c2ccccc2OCN1CCCCN1CCN(c2cccc(C(F)(F)F)c2)CC1` [Example 1, Monohydrochloric 3-dihydro-3-[4-(4-(3-trifluoromethylphenyl)piperazinyl)butyl]-4H-1,3-benzoxazin-4-one]: the 50% inhibitory concentration (IC50) is 7 nM. As to `COc1ccccc1N1CCN(CCN2COc3ccc(Cl)cc3C2=O)CC1` [Example 14, Hydrochloride of 6-chloro-2.3-dihydro-3-[2-(4-(2-methoxyphenyl)piperazinyl)ethyl]-4H-1,3-benzoxazin-4-one], the IC50 was determined as 5 nM. This IC50 and that of the compound before are within 1.5-fold of each other.

In the case of `COc1ccc2c(c1)C(=O)N(CCN1CCN(c3ccccc3OC)CC1)CO2` [Example 15, Hydrochloride of 6-methoxy-2,3-dihydro-3-[2-(4-(2-methoxyphenyl)piperazinyl)ethyl]-4H-1,3-benzoxazin-4-one], the IC50 was 2.2 nM. On the same count and under the same terms, then `COc1ccccc1N1CCN(CCN2COc3ccccc3C2=O)CC1` [Example 5, Dihydrochloride of 2,3-dihydro-3-[2-(4-(2-methoxyphenyl)piperazinyl)ethyl]-4H-1,3-benzoxazin-4-one], with 5 nM.

Test system in another series: not listed separately
Kind of series: solubility. Conditions: in DMSO. Type of series: physicochemical.
For the compound `COc1ccc2c(c1)C(=O)N(CCN1CCN(c3cccc(C(F)(F)F)c3)CC1)CO2` [Example 16, Hydrochloride of 2.6-dihydro-6-methoxy-3-[2-(4-(3-trifluoromethylphenyl)piperazinyl)ethyl]-4H-1,3-benzoxazin-4-one], the “soluble in DMSO up to” value is listed as “up to 7%”.

`O=C1c2ccccc2OCN1CCCCN1CCN(c2cccc(C(F)(F)F)c2)CC1` [Example 1, Monohydrochloric 3-dihydro-3-[4-(4-(3-trifluoromethylphenyl)piperazinyl)butyl]-4H-1,3-benzoxazin-4-one]: the “soluble in DMSO up to” value is recorded as “up to 6%”. Still for that read-out and setting: the value for `COc1ccccc1N1CCN(CCN2COc3ccc(Cl)cc3C2=O)CC1` [Example 14, Hydrochloride of 6-chloro-2.3-dihydro-3-[2-(4-(2-methoxyphenyl)piperazinyl)ethyl]-4H-1,3-benzoxazin-4-one] was “up to 1%”. Same read-out and setting: then `COc1ccc(N2CCN(CCCCN3COc4cc(OC)c(OC)cc4C3=O)CC2)cc1OC` [Example 18, Hydrochloride of 2.3-dihydro-6,7-dimethoxy-3-[4-(4-(3,4-dimethoxyphenyl)piperazinyl)butyl]-4H-1,3-benzoxazin-4-one], with “up to 2%”. Take `COc1ccc2c(c1)C(=O)N(CCN1CCN(c3ccccc3OC)CC1)CO2` [Example 15, Hydrochloride of 6-methoxy-2,3-dihydro-3-[2-(4-(2-methoxyphenyl)piperazinyl)ethyl]-4H-1,3-benzoxazin-4-one]: the “soluble in DMSO up to” value is “up to 1.3%”. On the same count and under the same terms, the value for `O=C1c2ccccc2OCN1CCN1CCN(c2cccc(C(F)(F)F)c2)CC1` [Example 10] was “up to 7%”; that for `COc1ccccc1N1CCN(CCN2COc3ccc(C)cc3C2=O)CC1` [Example 13, Hydrochloride of 2.3-dihydro-6-methyl-3-[2-(4-(2-methoxyphenyl)piperazinyl)ethyl]-4H-1,3-benzoxazin-4-one] was “up to 3%”.

Regarding `CC1Oc2ccccc2C(=O)N1CCN1CCN(c2cccc(C(F)(F)F)c2)CC1` (racemic) [Example 19, Hydrate of the (dl) hydrochloride of 2.3-dihydro-2-methyl-3-[2-(4-(3-trifluoromethylphenyl)piperazinyl)ethyl]-4H-1,3-benzoxazin-4-one], the “soluble in DMSO up to” value was “up to 2%”.

Take `O=C1c2ccccc2OCN1CCN1CCN(c2cccc(Cl)c2)CC1` [Example 9, Hydrochloride of 2.3-dihydro-3-[2-(4-(3-chlorophenyl)piperazinyl)ethyl]-4H-1,3-benzoxazin-4-one]: the “soluble in DMSO up to” value is listed as “up to 10%”.

Still in this series, the particulars now being: in water.
On to `COc1ccccc1N1CCN(CCN2COc3ccccc3C2=O)CC1` [Example 5 monohydrochloride], for which the “soluble in water up to” value was “up to 0.9%”. `COc1ccccc1N1CCN(CCN2COc3ccccc3C2=O)CC1` [Example 5, Dihydrochloride of 2,3-dihydro-3-[2-(4-(2-methoxyphenyl)piperazinyl)ethyl]-4H-1,3-benzoxazin-4-one]: the “soluble in water up to” value is “up to 6%”.

The series is the same for the next values; noted with them: water, in water; read-out: soluble in water up to.
Turning to `O=C1c2ccccc2OCN1CCCN1CCN(c2ccccc2)CC1` [Example 2, Monohydrochloride of 2,3-dihydro-3-[3-(4-phenylpiperazinyl)propyl]-4H-1,3-benzoxazin-4-one], the solubility is no more than 10000 µg/mL. For the compound `O=C1c2ccccc2OCN1CCN1CCN(c2ncccn2)CC1` [Example 12, Hydrochloride of 2,3-dihydro-3-[2-(4-(2-pyrimidinyl)piperazinyl)ethyl]-4H-1,3-benzoxazin-4-one], the solubility was no more than 12000 µg/mL. With `O=C1c2ccccc2OCN1CCN1CCN(c2ccccc2)CC1` [Example 3, Dihydrochloride of 2,3-dihydro-3-[2-(4-phenylpiperazinyl)ethyl]-4H-1,3-benzoxazin-4-one], the solubility was no more than 10000 µg/mL. On to `COc1cc2c(cc1OC)C(=O)N(CCCCN1CCN(c3ccccc3OC)CC1)CO2` [Example 17, Hydrochloride of 2.3-dihydro-6,7-dimethoxy-3-[4-(4-(2-methoxyphenyl)piperazinyl)butyl]-4H-1,3-benzoxazin-4-one], for which the solubility is no more than 2000 µg/mL.

In the case of `O=C1c2ccccc2OCN1CCCCN1CCN(c2ccccc2)CC1` [Example 4, Hydrochloride of 2.3-dihydro-3-[4-(4-phenylpiperazinyl)butyl]-4H-1,3-benzoxazin-4-one], the solubility is no more than 5000 µg/mL. Take `COc1ccccc1N1CCN(CCCCN2COc3ccccc3C2=O)CC1` [Example 7, Monohydrate of the dihydrochloride of 2,3-dihydro-3-[4-(4-(2-methoxyphenyl)piperazinyl)butyl]-4H-1,3-benzoxazin-4-one]: the solubility is no more than 30000 µg/mL. `Cc1ccccc1N1CCN(CCN2COc3ccccc3C2=O)CC1` [Example 8, Monohydrochloride of 2,3-dihydro-3-[2-(4-(2-methylphenyl)piperazinyl)ethyl]-4H-1,3-benzoxazin-4-one]: the solubility is no more than 3500 µg/mL. Still for that read-out and setting: then `O=C1c2ccccc2OCN1CCN1CCN(c2ccccn2)CC1` [Example 11, Hydrochloride of 2,3-dihydro-3-[2-(4-(2-pyridinyl)piperazinyl)ethyl]-4H-1,3-benzoxazin-4-one], with no more than 3000 µg/mL; and `COc1ccccc1N1CCN(CCCN2COc3ccccc3C2=O)CC1` [Example 6, Hydrochloride of 2,3-dihydro-3-[3-(4-(2-methoxyphenyl)piperazinyl)propyl]-4H-1,3-benzoxazin-4-one], with no more than 5000 µg/mL.
